This note sets out measurements from ChEMBL document CHEMBL4837252, “Zinc ionophores isolated from Terminalia bellirica fruit rind extract protect against cardiomyocyte hypoxia/reoxygenation injury” (2021).

A short description of assay [1]: Zinc ionophore activity assessed as uptake of zinc ions into liposomes by measuring increase in liposome-encapsulated FluoZin3-fluorescence at 10 uM measured after 1 hr in presence of ZnCl2 and TPEN by fluorescence analysis.
Assay [2] can be described thus: Zinc ionophore activity assessed as uptake of zinc ions into liposomes by measuring increase in liposome-encapsulated FluoZin3-fluorescence at 10 uM measured after 1 hr in presence of ZnCl2 by fluorescence analysis relative to control.
The subject of assay [3] is H9c2. Kind of assay: Inhibition of apoptosis in hypoxia/reoxygenation induced injury in rat H9c2 cells assessed as early apoptotic cells at 10 uM treated after 8 hrs of hypoxia and before 2 hrs of reoxygenation period by AnnexinV-FITC/propidium iodide staining based flow cytometry analysis (reference value: 36.45%). The arrangement: scale not given: the % may be the effect or the level left. The format is functional. A general note: A flow cytometer gives signals particle by particle.

Assay [4] has as its system H9c2. Kind of assay: Inhibition of apoptosis in hypoxia/reoxygenation induced injury in rat H9c2 cells assessed as early apoptotic cells at 10 uM treated after 8 hrs of hypoxia and before 2 hrs of reoxygenation period in presence of ZnCl2 by AnnexinV-FITC/propidium iodide staining based flow cytometry analysis (reference value: 36.45%). In kind it is functional. The arrangement: scale not given: the % may be the effect or the level left.

The test system of assay [5] is H9c2. Kind of assay: Inhibition of apoptosis in hypoxia/reoxygenation induced injury in rat H9c2 cells assessed as necrotic cells at 10 uM treated after 8 hrs of hypoxia and before 2 hrs of reoxygenation period in presence of ZnCl2 by AnnexinV-FITC/propidium iodide staining based flow cytometry analysis (reference value: 1.25%). The format is functional. Details: scale not given: the % may be the effect or the level left.

The test system of assay [6] is H9c2. Kind of assay: Cardioprotective activity against hypoxia/reoxygenation-induced injury in rat H9c2 cells assessed as cell viability at 10 uM treated after 8 hrs of hypoxia and before 16 hrs of reoxygenation period by MTT assay. In kind it is functional, cell-based. A general note: Tetrazolium assays rely on reduction of a dye to a coloured formazan, in cell work by metabolically active cells.

The test system of assay [7] is H9c2. Kind of assay: Inhibition of apoptosis in hypoxia/reoxygenation induced injury in rat H9c2 cells assessed as caspase-3 activity at 10 uM treated after 8 hrs of hypoxia and before 16 hrs of reoxygenation period in presence of ZnCl2 (reference value: 187%). In kind it is functional. The arrangement: scale not given: the % may be the effect or the level left.
Assay [8] concerns H9c2. Kind of assay: Inhibition of apoptosis in hypoxia/reoxygenation induced injury in rat H9c2 cells assessed as late necrotic cells at 10 uM treated after 8 hrs of hypoxia and before 2 hrs of reoxygenation period by AnnexinV-FITC/propidium iodide staining based flow cytometry analysis (reference value: 1.25%). In kind it is functional. Details: scale not given: the % may be the effect or the level left.

In assay [9] the test system is H9c2. Kind of assay: Inhibition of apoptosis in hypoxia/reoxygenation induced injury in rat H9c2 cells assessed as late apoptotic cells at 10 uM treated after 8 hrs of hypoxia and before 2 hrs of reoxygenation period in presence of ZnCl2 by AnnexinV-FITC/propidium iodide staining based flow cytometry analysis (reference value: 7%). The format is functional. The arrangement: scale not given: the % may be the effect or the level left.

Assay [10] deals with H9c2. Kind of assay: Inhibition of apoptosis in hypoxia/reoxygenation induced injury in rat H9c2 cells assessed as viable cells at 10 uM treated after 8 hrs of hypoxia and before 2 hrs of reoxygenation period in presence of ZnCl2 by AnnexinV-FITC/propidium iodide staining based flow cytometry analysis (reference value: 55.35%). The format is functional. The note with it: read-out: Activity.

Assay [11] has as its system H9c2. Kind of assay: Cardioprotective activity against hypoxia/reoxygenation-induced injury in rat H9c2 cells assessed as cell viability at 10 uM treated after 8 hrs of hypoxia and before 16 hrs of reoxygenation period in presence of ZnCl2 by MTT assay. In kind it is functional. The note with it: read-out: Activity.
Assay [12] relates to H9c2. Kind of assay: Inhibition of apoptosis in hypoxia/reoxygenation induced injury in rat H9c2 cells assessed as viable cells at 10 uM treated after 8 hrs of hypoxia and before 2 hrs of reoxygenation period by AnnexinV-FITC/propidium iodide staining based flow cytometry analysis (reference value: 55.35%). The format is functional. The note with it: read-out: Activity.
Assay [13] deals with H9c2. Kind of assay: Inhibition of apoptosis in hypoxia/reoxygenation induced injury in rat H9c2 cells assessed as late apoptotic cells at 10 uM treated after 8 hrs of hypoxia and before 2 hrs of reoxygenation period by AnnexinV-FITC/propidium iodide staining based flow cytometry analysis (reference value: 7%). The arrangement: scale not given: the % may be the effect or the level left. The format is functional.

Assay [14] relates to H9c2. Kind of assay: Cardioprotective activity in rat H9c2 cells assessed as reduction in hypoxia/reoxygenation-induced intracellular Zn2+ level depletion by measuring improvement in intracellular TSQ fluorescence intensity at 10 uM treated at the onset of 1 hr reoxygenation period in the presence of ZnCl2 by TSQ staining based fluorescence analysis relative to control. In kind it is functional.

The source made the active and inactive calls. No cut-off for these calls is given here.

Take `Oc1c(I)cc(Cl)c2cccnc12`: in assay [1], the outcome was inactive. Besides, the fold change (FC) in assay [2] is 40.

Take `O=C(O[C@@H]1Cc2c(O)cc(O)cc2O[C@@H]1c1ccc(O)c(O)c1)c1cc(O)c(O)c(O)c1` [EPICATECHIN GALLATE]: the Activity in the assay on H9c2 [3] is given as 37.4%; with H9c2 [4], 22.8%; in the assay with H9c2 [5], 1.42%; in the assay on H9c2 [7], 139%; in the assay on H9c2 [8] it was 1.05%; with H9c2 [9], 2.32%. Further, the Activity in the assay on H9c2 [13] is recorded as 7.32%. The outcome (with H9c2 [6]; in assay [1]) was inactive. In addition, the fold change (FC) in assay [2] amounted to 16; in the assay with H9c2 [14], 2.1. Further, the figures for the viability at 10 µM in the assay with H9c2 [10], with H9c2 [11] and in the assay with H9c2 [12] were 73.5%, 60% and 54.2%, respectively.

`Oc1cc(O)c2c(c1)O[C@H](c1cc(O)c(O)c(O)c1)[C@H](O)C2` [EPIGALLOCATECHIN]: the Activity in the assay with H9c2 [3] stood at 44.27%; in the assay on H9c2 [4], 26.47%; in the assay with H9c2 [5], 5.05%; in the assay with H9c2 [7] it was 158%; with H9c2 [8], 3.92%; with H9c2 [9], 6.72%. The Activity in the assay with H9c2 [13] worked out at 4.77%. For the same compound, the result (in the assay with H9c2 [6]; in assay [1]) was inactive. The fold change (FC) in assay [2] stood at 8; in the assay on H9c2 [14], 1. Further, the viability at 10 µM in the assay on H9c2 [10] amounted to 61.8%; in the assay on H9c2 [11], 52%; in the assay with H9c2 [12] it was 47%.

For the compound `O=C(O[C@@H]1Cc2c(O)cc(O)cc2O[C@@H]1c1cc(O)c(O)c(O)c1)c1cc(O)c(O)c(O)c1` [EPIGALOCATECHIN GALLATE], the Activity in the assay on H9c2 [3] is on record as 37.4%; in the assay on H9c2 [4] it was 16.12%; in the assay with H9c2 [5], 0.97%; with H9c2 [7], 112%; in the assay with H9c2 [8], 2.02%; in the assay on H9c2 [9], 2.72%. Further, in the assay with H9c2 [13], the Activity turned out to be 8.12%. Besides, the result (in the assay with H9c2 [6]; in assay [1]) was inactive. In addition, the fold change (FC) in [2] is 28; in the assay on H9c2 [14], 4. Also, the viability at 10 µM in the assay on H9c2 [10] was 80.1%; in the assay on H9c2 [11] it was 78%; in the assay on H9c2 [12] it was 52.5%.
